Tested on: HSP 70
Assay: Production of stress protein HSP 70 (RNAm by RT-PCR, band intensity vs β-actine) in cutaneous cell cultures
Assay type: cell-based, human
Conditions: tested at 1.5 g/l
Protocol: 1st test with thermal treatment:
At J0, cutaneous cells, fibroblasts and/or keratinocytes are seeded.
At J4, 3% of active principle was added and after an incubation of 30 minutes thermal treatment is carried out for 1 hour at 39° C.
The positive specimen is treated for 1 hour at 44° C.
The total RNA is extracted. The RNA is reverse-transcripted and the complementary DNA is analyzed by using complementary oligonucleotides of a sequence coding the genes and proteins studied.
The RNAm of β-actine is analyzed for each experimental condition.
By image analysis, using for example the system sold under the name BIO-PROFIL, the band intensities are determined.
2nd test without thermal treatment:
At J3, 3% of active principle is added and left to incubate for 24 hours at 37° C.
At J4, at the end of this incubation, the cells are recovered.
The total RNA is extracted. The RNA is reverse-transcripted and the complementary DNA is analyzed by using complementary oligonucleotides of a sequence coding the genes and proteins used. The RNAm of p-actine is analyzed for each experimental condition.
Similarly to the above, by image analysis, the intensities of the bands are determined. […]
The results of the thermal treatments of the standard are indicated in the table in FIG. 1, taking as 100% the quantity of RNAm of HSP 70 after incubation at 37° C. of a standard specimen

Row | Compound | effect on the synthesis of HSP 70 on fibroblasts, result in words
1 | OCCc1ccc(O)c(O)c1 [Dihydroxytyrosol] | very active
2 | C/C=C1/[C@H](O[C@@H]2O[C@H](CO)[C@@H](O)[C@H](O)[C@H]2O)OC=C(C(=O)OC)[C@H]1CC(=O)OCCc1ccc(O)c(O)c1 [Oleuropeine] | very active
